These results are taken from patent EP1203770A1 (priority 1992, dated 1994).

This assay addresses T1, HIV-1 protease (Human immunodeficiency virus type 1 group M subtype B, UniProt P04585).
T1 construct: The protease (or proteinase), consisting of only 99 amino acids, is among the smallest enzymes known
Put plainly: In vitro HIV protease inhibitory assay (HIV Protease FITC Assay). The assay is classed as biochemical. To be noted: for inhibition at 0.41 µM: HIV-1 Dose 0.410 uM; for inhibition at 0.41 µM / inhibition at 1.23 µM / inhibition at 3.7 µM / inhibition at 11 µM / inhibition at 33 µM / inhibition at 100 µM / inhibition at 0.123 µM / inhibition at 0.37 µM / inhibition at 1.1 µM / inhibition at 3.3 µM / inhibition at 10 µM / inhibition at 30 µM / inhibition at 1 µM: read-out: HIV-1 Protease % Inhib; for inhibition at 1.23 µM: HIV-1 Dose 1.230 uM; for inhibition at 3.7 µM: HIV-1 Dose 3.700 uM; for inhibition at 11 µM: HIV-1 Dose 11.000 uM; for inhibition at 33 µM: HIV-1 Dose 33.000 uM; for inhibition at 100 µM: HIV-1 Dose 100.000 uM; for Ki: read-out: HIV-1 FITC Ki; for inhibition at 1 µM: HIV-1 Dose 1.000 uM. The procedure, abridged:
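Percent inhibition was read as fluorescence after avidin-bead capture and filtration separated FITC cleavage product from biotinylated substrate. Enzyme and substrate reacted 1 h, RT, dark, at pH 5.5 (0.1 M sodium acetate, 1.0 M NaCl, 0.05% NP-40).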

Where two headings read alike, the source gives them in different places. Bounds are passed on as bounds.

The term Ki denotes the equilibrium dissociation constant of an inhibitor or competing ligand from its target. As to `CCC(CCOCCOC)c1cc(O)c(C(c2ccccc2)C2CC2)c(=O)o1` (centres unmarked) [Example 106, 3-(Cyclopropyl-phenyl-methyl)-6-(1-ethyl-3-(2-methoxy-ethoxy)-propyl)-4-hydroxy-pyran-2-one], the inhibition at 0.41 µM was 57.4%, the inhibition at 1.23 µM was 82.1%, the inhibition at 3.7 µM amounted to 101% and the inhibition at 11 µM was found to be 111%. The inhibition at 33 µM amounted to 115%, the inhibition at 100 µM was 119% and the Ki amounted to 58 nM.
Consider `CCC(Cc1ccccc1)c1cc(O)c(C(c2cccc(NC(=O)Nc3ccc(Br)cc3)c2)C2CC2)c(=O)o1` (stereo not drawn) [Example 215, 3-(α-Cyclopropyl-meta-[(4-bromophenylaminocarbonyl)amino]benzyl)-6-(α-ethylphenethyl)-4-hydroxy-2H-pyran-2-one], for which, under “HIV-1 Dose 0.123 uM”, the inhibition at 0.123 µM was under 10%. Besides, where the note is “HIV-1 Dose 0.370 uM”, the inhibition at 0.37 µM was under 10%. Besides, the inhibition at 1.1 µM (HIV-1 Dose 1.100 uM) is under 10%. Besides, under “HIV-1 Dose 3.300 uM”, the inhibition at 3.3 µM was 16.1%. Also, the inhibition at 10 µM (HIV-1 Dose 10.000 uM) is 23.1%. Besides, where the note is “HIV-1 Dose 30.000 uM”, the inhibition at 30 µM is 28.8%.
Take `O=C1OC(CCc2ccccc2)(CCc2ccccc2)CC(O)=C1C(C=Cc1ccccc1)c1ccccc1` (centres unmarked) [Example 236, 2H-Pyran-2-one, 5,6-dihydro-4-hydroxy-6,6-di-(2-phenylethyl)-3-(1,3-diphenyl-2-propenyl)-]: the inhibition at 0.123 µM (HIV-1 Dose 0.123 uM) was under 10%. Besides, under “HIV-1 Dose 0.370 uM”, the inhibition at 0.37 µM was under 10%. For the same molecule, the inhibition at 1.1 µM (HIV-1 Dose 1.100 uM) was 26%. The inhibition at 3.3 µM (HIV-1 Dose 3.300 uM) came to 54.1%. Besides, the inhibition at 10 µM (HIV-1 Dose 10.000 uM) turned out to be 75.8%. Further, the inhibition at 30 µM (HIV-1 Dose 30.000 uM) worked out at 78.7%.
For the molecule `CCC(c1ccccc1)c1c(O)cc(CC(=O)Nc2ccccc2)oc1=O` (stereo not drawn) [Example 11, 3-(α-ethylbenzyl)-4-hydroxy-6-[[(phenylamino)carbonyl]methyl]-2H-Pyran-2-one], the inhibition at 1 µM came out at 10.8% and the inhibition at 100 µM stood at 79.8%. Moreover, the inhibition at 10 µM (HIV-1 Dose 10.000 uM) came to 35.6%.
On to `CCC(Cc1ccc(Cl)cc1)c1cc(O)c(C(c2ccccc2)C2CC2)c(=O)o1` (stereo not drawn) [Example 155, 3-(α-cyclopropylbenzyl)-4-hydroxy-6-(α-ethyl-p-chlorophenethyl)-2H-pyran-2-one], for which the inhibition at 100 µM amounted to 111% and the Ki came to 66 nM. Also, the inhibition at 0.123 µM (HIV-1 Dose 0.123 uM) came to 27.6%. Further, the inhibition at 0.37 µM (HIV-1 Dose 0.370 uM) was 46%. Besides, the inhibition at 1.1 µM (HIV-1 Dose 1.100 uM) was 79.9%. Further, the inhibition at 3.3 µM (HIV-1 Dose 3.300 uM) came to 92.8%. Also, the inhibition at 10 µM (HIV-1 Dose 10.000 uM) was 97.2%. Also, under “HIV-1 Dose 30.000 uM”, the inhibition at 30 µM came to 93.5%.
As for `CCC(Cc1ccc2ccccc2c1)c1cc(O)c(C(CC)c2ccccc2)c(=O)o1` (stereo not drawn) [Example 17, 3-(α-ethylbenzyl)-4-hydroxy-6-(1-ethyl-2-naphth-2-ylethyl)-2H-Pyran-2-one], the inhibition at 1 µM is under 10% and the inhibition at 100 µM worked out at 73.6%. Further, where the note is “HIV-1 Dose 10.000 uM”, the inhibition at 10 µM came out at 49.5%.
Turning to `CCC(CC)c1oc(=O)c(C(c2ccccc2)C2CC2)c(O)c1CCOCCOC` (centres unmarked) [Example 110, 3-(Cyclopropyl-phenyl-methyl)-6-(1-ethyl-propyl)-4-hydroxy-5-(2-(2-methoxy-ethoxy)ethyl)-pyran-2-one], the inhibition at 0.41 µM was under 10%, the inhibition at 1.23 µM was 16.1%, the inhibition at 3.7 µM amounted to 43.2% and the inhibition at 11 µM was 71.2%. In addition, the inhibition at 33 µM was 88.6% and the inhibition at 100 µM is 84.3%.
On to `O=c1oc(CC(O)c2cccc(Cl)c2)cc(O)c1C(c1ccccc1)C1CC1` (stereo not drawn) [Example 150, 3-(α-cyclopropylbenzyl)-4-hydroxy-6-(β-hydroxy-m-chlorophenethyl)-2H-pyran-2-one], for which the inhibition at 100 µM stood at 113%. Moreover, the inhibition at 0.123 µM (HIV-1 Dose 0.123 uM) was under 10%. The inhibition at 0.37 µM (HIV-1 Dose 0.370 uM) amounted to 13.3%. The inhibition at 1.1 µM (HIV-1 Dose 1.100 uM) was determined as 25.4%. The inhibition at 3.3 µM (HIV-1 Dose 3.300 uM) worked out at 54.1%. Moreover, the inhibition at 10 µM (HIV-1 Dose 10.000 uM) amounted to 75.2%. In addition, the inhibition at 30 µM (HIV-1 Dose 30.000 uM) is 91%.
Regarding `C=CCC(CC=C)c1cc(O)c(C(c2ccccc2)C2CC2)c(=O)o1` (centres unmarked) [Example 97, 6-(1-Allyl-but-3-enyl)-3-(cyclopropyl-phenyl-methyl)-4-hydroxy-pyran-2-one], the inhibition at 1 µM came to 75.9%, the inhibition at 100 µM worked out at 110% and the Ki was found to be 100 nM. Moreover, the inhibition at 10 µM (HIV-1 Dose 10.000 uM) was 99.6%.
The corresponding values for `C=CC(c1ccccc1)C1C(=O)CC(C)(c2ccccc2)OC1=O` (centres unmarked) [Example 34, Dihydro-6-methyl-6-phenyl-3-(1-phenyl-2-propenyl)-2H-Pyran-2,4(3H)-dione] are under 10%, 67.9%, 625 nM and 56.5%.
Regarding `CCCC1(CCc2ccccc2)CC(O)=C(C(/C=C/c2ccccc2)c2ccccc2)C(=O)O1` (centres unmarked) [Example 170, 3-(1,3-Diphenyl-2-propenyl)-5,6-dihydro-4-hydroxy-6-(2-phenylethyl)-6-propyl-, (E)-2H-pyran-2-one], the inhibition constant Ki amounted to 50 nM, the inhibition at 0.123 µM is under 10%, the inhibition at 0.37 µM was 29.6% and the inhibition at 1.1 µM came to 62.1%. Also, the inhibition at 3.3 µM worked out at 86.7%, the inhibition at 10 µM was 95.1% and the inhibition at 30 µM stood at 93%.
Take `CCC(Cc1csc(-c2ccc(Cl)cc2)n1)c1cc(O)c(C(c2ccccc2)C2CC2)c(=O)o1` (centres unmarked) [Example 55, 6-(1-(2-(4-Chloro-phenyl)-thiazol-4-ylmethyl)-propyl)-3-(cyclopropyl-phenyl-methyl)-4-hydroxy-pyran-2-one]: the inhibition at 0.41 µM is under 10%, the inhibition at 1.23 µM came to 24.1%, the inhibition at 3.7 µM was determined as 59.6% and the inhibition at 11 µM was found to be 92.1%. Besides, the inhibition at 33 µM turned out to be 89.6%, the inhibition at 100 µM was 102% and the Ki turned out to be 578 nM.
As to `CCC(CC1CCCCC1)c1cc(O)c(C(c2ccccc2)C2CC2)c(=O)o1` (centres unmarked) [Example 85, 6-(1-Cyclohexylmethyl-propyl)-3-(cyclopropyl-phenyl-methyl)-4-hydroxy-pyran-2-one], the inhibition at 1 µM is 11.6% and the inhibition at 100 µM is 92.1%. The inhibition at 10 µM (HIV-1 Dose 10.000 uM) turned out to be 77%.
Regarding `CCC(Cc1ccccc1)c1cc(O)c(C(c2cccc(NS(=O)(=O)c3cccc4cccnc34)c2)C2CC2)c(=O)o1` (stereo not drawn) [Example 229, 3-(α-Cyclopropyl-meta-(8-quinolinesulfonylamino)benzyl)-6-(α-ethylphenethyl)-4-hydroxy-2H-pyran-2-one], the Ki stood at 3.5 nM. For the same molecule, the inhibition at 0.123 µM (HIV-1 Dose 0.123 uM) was found to be 52.2%. Besides, the inhibition at 0.37 µM (HIV-1 Dose 0.370 uM) was found to be 95.9%. For the same molecule, where the note is “HIV-1 Dose 1.100 uM”, the inhibition at 1.1 µM turned out to be 106%. For the same molecule, the inhibition at 3.3 µM (HIV-1 Dose 3.300 uM) worked out at 106%. The inhibition at 10 µM (HIV-1 Dose 10.000 uM) was found to be 113%. Further, under “HIV-1 Dose 30.000 uM”, the inhibition at 30 µM came to 102%.
As for `CCC(CC(=O)N1CCOCC1)c1cc(O)c(C(c2ccccc2)C2CC2)c(=O)o1` (centres unmarked) [Example 69, 3-(Cyclopropyl-phenyl-methyl)-6-(1-ethyl-3-morpholin-4-yl-3-oxo-propyl)-4-hydroxy-pyran-2-one], the inhibition at 0.123 µM (HIV-1 Dose 0.123 uM) is under 10%. In addition, the inhibition at 0.37 µM (HIV-1 Dose 0.370 uM) was under 10%. The inhibition at 1.1 µM (HIV-1 Dose 1.100 uM) was 13.9%. The inhibition at 3.3 µM (HIV-1 Dose 3.300 uM) was 42.1%. For the same molecule, for the setting “HIV-1 Dose 10.000 uM”, the inhibition at 10 µM amounted to 75.2%. Moreover, the inhibition at 30 µM (HIV-1 Dose 30.000 uM) was found to be 98.5%.
In the case of `CCC(Cc1ccccc1)c1cc(O)c(C(c2cccc(NS(=O)(=O)/C=C/c3ccccc3)c2)C2CC2)c(=O)o1` (stereo not drawn) [Example 180, 3-(α-Cyclopropyl-meta-((E)-2-phenylethenylsulfonylamino)benzyl)-6-(α-ethylphenethyl)-4-hydroxy-2H-pyran-2-one], the Ki is 23.3 nM. For the same molecule, under “HIV-1 Dose 0.123 uM”, the inhibition at 0.123 µM was determined as 32%. For the same molecule, the inhibition at 0.37 µM (HIV-1 Dose 0.370 uM) amounted to 55.9%. Besides, for the setting “HIV-1 Dose 1.100 uM”, the inhibition at 1.1 µM turned out to be 80.5%. The inhibition at 3.3 µM (HIV-1 Dose 3.300 uM) is 91.9%. Moreover, the inhibition at 10 µM (HIV-1 Dose 10.000 uM) worked out at 99.5%. The inhibition at 30 µM (HIV-1 Dose 30.000 uM) stood at 98%.
Take `CCC(Cc1ccccn1)c1cc(O)c(C(c2ccccc2)C2CC2)c(=O)o1` (centres unmarked) [Example 63, 3-(Cyclopropyl-phenyl-methyl)-4-hydroxy-6-(1-pyridin-2-ylmethyl-propyl)-pyran-2-one]: the inhibition at 0.41 µM was found to be 68.5%, the inhibition at 1.23 µM turned out to be 95.8%, the inhibition at 3.7 µM stood at 101% and the inhibition at 11 µM is 110%. The inhibition at 33 µM is 112%, the inhibition at 100 µM was found to be 117% and the Ki came out at 79 nM.
Take `CCC(Cc1ccccc1Cl)c1cc(O)c(C(c2ccccc2)C2CC2)c(=O)o1` (stereo not drawn) [Example 157, 3-(α-cyclopropylbenzyl)-4-hydroxy-6-(α-ethyl-o-chlorophenethyl)-2H-pyran-2-one]: the inhibition at 0.123 µM (HIV-1 Dose 0.123 uM) was under 10%. In addition, the inhibition at 0.37 µM (HIV-1 Dose 0.370 uM) came out at 17.6%. Under “HIV-1 Dose 1.100 uM”, the inhibition at 1.1 µM was found to be 42.2%. Moreover, the inhibition at 3.3 µM (HIV-1 Dose 3.300 uM) came to 69%. The inhibition at 10 µM (HIV-1 Dose 10.000 uM) was 83.5%. For the setting “HIV-1 Dose 30.000 uM”, the inhibition at 30 µM came to 84.9%.
Consider `CCCC(c1ccc(Br)cc1)c1c(O)cc(CCc2ccccc2)oc1=O` (stereo not drawn) [Example 4, 4-hydroxy-6-phenethyl-3-(α-propyl-p-bromobenzyl)-2H-Pyran-2-one], for which the inhibition at 1 µM was under 10% and the inhibition at 100 µM was determined as 51.2%. Moreover, the inhibition at 10 µM (HIV-1 Dose 10.000 uM) turned out to be 15.8%.
